The nature of series [1]: in vivo. The conditions noted are these: Sprague-Dawley, rat.
Method: (§1) In another study, a single intravenous dose of two compounds was given to rats (N=3) at 30 mg/ml dosage following administration through the lateral tail vein in order to obtain the absolute oral bioavailability and clearance parameters. Compounds (10 mg/mL) was dissolved in 30% DMSO for IV injection and suspended in 0.5% CMC-Na for IG respectively.
Series [2] has as its system THP-1 cell. The series can be described thus: Differentiation of monocyte to macrophage in THP-1 cell line. It counts as cell-based. The conditions noted are these: in words. On the procedure:
The THP-1 cell line was purchased from ATCC (American Type Culture Collection, Manassas, Va.). Cells were maintained in growth medium (RPMI-1640) with supplemented with 10% heat inactivated bovine serum, 100× Glutamax medium and 0.05 mM β-Mercaptoethanol at 37° C. under 5% CO2. Compounds were dissolved in 0.1% DMSO. Erythromycin was used as a positive control.
For the assessment of the effect of compounds of the present invention on differentiation of monocyte to macrophage in THP-1 cell line, cells were collected and centrifuged at 900 rpm for 4 minutes. The cell density was adjusted to 2.5×10^5/mL. cell suspension of 400 μL was added to each well of 48-well plate following the plate layout. PMA 1 mg, a compound can induce monocyte differentiation, was dissolved in 10 mL DMSO to form 100 μg/mL solution and aliquote it into 1 mL per vial. 1 mL solution can be further aliquoted into 10 μL per vial and stored the aliquots at −20° C. Make 10-fold dilution of PMA with DMSO and then 500-fold dilution with complete medium. 50 μL solution were then added to each well of 48-well plate following the plate layout. Erythromycin and compounds of examples at stock concentration of 10 mM was serially diluted at 10-fold in DMSO. 50 μL solution was added to each well of 48-well plate following the plate layout. After 96 hrs incubation at 37° C., 5% CO2, the plate was washed with DPBS for three times to remove non-adherent cells for three times. Complete medium 180 μL and alarmar blue 20 μL was added to each well. The fluorescent intensity was read at excitation 530 nm and emission 590 nm using PerkinElmer Victor3 after 3 hours plate incubation.
The differentiation activity of compounds of Examples is compared to that of 100 μM erythromycin and the results are shown in FIG. 1 and Table 3.

In series [3] the test system is IL-8 expression in BEAS-2B cell. The series can be described thus: LPS induced IL-8 release by BEAS-2B (ELISA). The conditions noted are these: in words; BEAS-2B. It counts as cell-based. On the procedure: The inhibitory effect of compounds of Examples on the IL-8 expression in BEAS-2B cell was tested using the following method. BEAS-2B was purchased from ATCC (American Type Culture Collection, Manassas, Va.). Cells were maintained in growth medium (LHC-9) and cultured at 37° C. under 5% CO2. Compounds were dissolved in 0.1% DMSO. Erythromycin was used as a positive control.
For the assessment of the effect of compounds of Examples on IL-8 expression inhibition in BEAS-2B cell line, cells were plated in 24 well plate at a density of 100,000/mL, in a final volume of 1 mL of assay medium. Cells were incubated at 37° C., 5% CO2 for 1 day. After the incubation, compounds were added at day 2 and LPS was added at day 3. A compound source plate was prepared by triplicate five-point 10-fold or 2-fold serial dilutions in DMSO, beginning at 1 mM (final top concentration of compounds of Examples in the assay was 100 μM and the DMSO was 0.1%). The positive control consisted of cells treated with 100 μM erythromycin and negative control was consisted of 0.1% DMSO treated cells. LPS stock solution at 5 mg/mL was made by dissolving 10 mg of LPS powder into 2 mL of ddH2O and aliquoted to 100 μL per vial. Final concentration of LPS in the assay was […] by making 125-fold dilution of stock solution with medium.
Specific immunoreactivity for IL-8 in culture supernatants were measured by a commercially available ELISA kits (R&D Systems, Inc., Minneapolis, Minn.). Each sample was assayed in duplicates as recommended by the manufacture. The concentration of compounds of Examples inhibiting IL-8 production on BEAS-2B by 10% was estimated from a 4-parametric of the normalized dose response curve. (IC10)
Background: ELISA stands for enzyme-linked immunosorbent assay.

For series [4], the system named is Staphylococcus aureus ATCC 29213. The series can be described thus: Antibacterial activity, agar dilution MIC. It counts as cell-based. The settings on record: ATCC29213, 20-24 hrs incubation, read-out: minimum inhibitory concentration MIC. As for the experimental part: The antibacterial activity of Erythromycin and compounds of examples were evaluated by the agar dilution method, following the guidelines of the CLSI. […] Briefly, bacteria were grown overnight in adapted media (MHIIA with 5% of sheep blood for Streptococcus pneumoniae and Haemophilus influenzae, and MHIIA for the other bacteria strains) at 35° C., 5% CO2.
Cultures were centrifuged at 3000×g for 15 min. Pellets were diluted with 5 mls cold PBS and the OD600nm was adjusted to 10^8 CFU.mL^−1 with a spectrometer. Bacteria were then added to 96-well test plates. Compounds were diluted in DMSO in a 2 fold steps from 20 mg/ml in DMSO in 96 well plated and transferred to the test plate. During the incubation, the plate was maintained at 35° C., 5% CO2.
The MICs for Erythromycin and compounds of examples were determined after 20-24 hrs incubation.

Series [5] has as its system smoke induced COPD mice model. The series can be described thus: Smoke induced COPD mice model. It counts as in vivo, C57BL/6 J mice. On the procedure: The commercial non-filtered cigarettes containing 11 mg tar and 0.9 mg nicotine per cigarette were used in this study. Eight-week-old male C57BL/6 J mice (purchased from Shanghai Xipuer Yibikai animal Co) were divided into four groups as follows: Group 1 was the control group(NS6m), Group 2 was the animal model CS group(CS6m), Groups 3 was CS+Compound A 100 mpk group(LY100), Group 4 was CS+erythromycin group(EM100). Mice were placed in a Plexiglass chamber covered by a disposable filter. The animals received CS of 5 cigarettes/time, carried out twice per day and 5 days a week for 24 weeks. Mainstream CS was generated by an exposure system in which combustion of the cigarette was drawn into the mouse chambers via a peristaltic pump. In group 3 and 4, mice were orally administrated with Compound A (100 mg/kg) twice per day from the 12th week to 24th week. One week after the last CS exposure, animals were sacrificed by intraperitoneal injection of 10% chloral hydrate for the plasma, bronchoalveolar lavage fluid (BALF) and lung tissues collection.
The lung tissues were collected and inflated with 4% paraformaldehyde at a pressure of 25 cmH2O, fixed for 24 h in formalin, embedded with paraffin, sectioned in the sagittal plane, and stained with hematoxylin and eosin (H & E). Alveolus enlargement was quantified by measurement of the mean chord length of alveoli with Analysis software Image J (see FIGS. 5 & 6).
For the bronchoalveolar lavage fluid collection, lungs were lavaged with 1 ml of saline, and the resulting BALF was centrifuged at 3000 g for 15 minutes. Cells were washed three times and then analyzed on a ThermoFisher Countess II cytometer.

The conditions of series [6]: male, Sprague-Dawley, rat, in vivo, po, 100 mg/kg.
Method: as §1

Structures are written as SMILES. In brackets after ≈: the same amount, converted by molar mass.

Turning to `CC[C@H]1OC(=O)[C@H](C)[C@@H](O[C@H]2C[C@@](C)(OC)[C@@H](O)[C@H](C)O2)[C@H](C)[C@@H](O[C@@H]2O[C@H](C)C[C@H](N(C)C)[C@H]2O)[C@](C)(O)C[C@@H](C)C(=O)[C@H](C)[C@@H](O)[C@]1(C)O` [Erythromycin, reference compound], the clearance (in general, the rate of elimination divided by the concentration) in series [1] (iv) came out at 50.2 mL/min/kg. For the same compound, in series [1] (male, po, 100 mg/kg), the AUC(0-inf) – broadly, the area under the concentration-time curve extrapolated to infinity – turned out to be 7250 ng·h/mL; the AUC(0-t) – broadly, the area under the concentration-time curve up to a stated or last time point – was determined as 7240 ng·h/mL; the highest level (Cmax) was 2530 ng/mL; the Tmax (commonly the time from dosing to the highest level) stood at 2 h. For the same compound, the half-life (as a rule, the time needed for the level to fall by half in the phase considered) in series [1] (male, po, 100 mg/kg) was 55.8 min. Besides, the “effect on THP-1 cell differentiation” value in series [2] is given as “promotional effect on THP-1 cell differentiation in a dose dependent manner”. Besides, the “LPS-induced IL-8 release” value in series [3] is given as “significantly inhibited”. For the same compound, in series [4], the MIC was determined as 0.5 µg/mL (≈ 0.681 µM). In series [5] (100 mg/kg orally twice per day, 12th to 24th week, vs CS group), the “inflammatory cell infiltration and enlargement of alveolus (lung histology)” value is “significantly attenuated”. Moreover, in series [5] (100 mg/kg orally twice per day, compared to the smoking group), the “total cell count and number of macrophages and neutrophils in BALF” value is reported as “significantly lower”. Moreover, in series [5] (oral administration of 100 mg/kg, 24 weeks smoke exposure), the “airway resistance and total lung capacity” value was “reduced two parameters and partially recovered lung function”. This compound had a F in series [6] of 21.8%.

For the origin of these results see patent US20230068020A1, “MACROLIDE COMPOUND AND ITS USE OF TREATMENT CHRONIC RESPIRATORY DISEASE” (priority 2020, published 2023).
